According to patent US8633314B2, “Forms of a multicyclic compound” (Cephalon, Inc., priority 2009, dated 2014):
Values belong to the compound of their own block, whether it stands above or below them.

How the values were obtained:
Format in all cases: physicochemical
[1] = Solid state stress stability (storage; XRPD and stability-indicating HPLC)
Description: Typically 10 μL aliquots of the sample solutions were diluted to 1 mL with acetonitrile and the assay concentrations were determined from an average of duplicate injections using the following HPLC method. The purity and impurity analyses are done using conventional HPLC.
Crystallization studies were performed to investigate polymorphism in 48 different solvents. Solvents were selected on the basis of acceptability (ICH Class 3 and 2) and to give a range of dielectric constants, dipole moments and functional groups. Two starting materials were selected: Form A0 and Lot 7 (a mixture of Form A0, Form HC0 and Form HD0). When possible, full characterization was performed on the new forms that were generated during the polymorphism screening of Compound I. This characterization consisted of: XRPD, thermal analysis, DVS, storage at 40° C./75% RH and purity.
Stress stability studies were performed to get a timely impression of the influence of temperature and humidity on form stability. A stability-indicating HPLC assay method was developed for quantitation of Compound I and its major degradation product, 7-methoxy-1,2,3,11-tetrahydro-5,11-diaza-benzo[a]trindene-4,6-dione, previously referred to as “Compound E”.

[2] = Variable temperature X-ray powder diffraction (VT-XRPD); conditions: 150° C. to 200° C., after the dehydration
Description: Variable temperature studies were performed under a nitrogen atmosphere with an Anton Paar TTK450 temperature chamber under computer control through an Anton Paar TCU100 temperature control unit. Two measurement schemes were used, restricted and continuous. In the restricted mode, measurements were made, only after the TK450 chamber reached the requested temperature. In the continuous mode, the sample was heated at 10° C./minute and fast scans were measured as the temperature changed. After the requested temperature was reached, the sample was cooled at 30 or 35° C./minute and a slower scan measured 25° C.

[3] = Dynamic vapor sorption (DVS)
Description: Gravimetric vapor sorption experiments were carried out using the DVS-HT instrument (Surface Measurement Systems, London, UK). This instrument measures the uptake and loss of vapor gravimetrically using a recording ultra-microbalance with a mass resolution of ±0.1 μg. The vapor partial pressure (±1.0%) around the sample was controlled by mixing saturated and dry carrier gas streams using electronic mass flow controllers. The desired temperature was maintained at ±0.1° C.
The samples (10-25 mg) were placed into the DVS-HT instrument at the desired temperature. Two types of dynamic vapor sorption experiments were performed: • 1. The sample was initially dried in stream of dry air (<0.1% relative humidity (RH)) for 20 hours to establish a dry mass and exposed to two 0-90% RH cycles (in 10% RH increments). • 2. The sample was exposed at 90% RH for 20 hours and exposed to two 90-0% RH cycles (in 10% RH increments). Infrared Spectrometry (FTIR)

[4] = Well plate crystallization with added water (forms found)
Description: B. Plates containing 10 volumes of Compound I (40 mg of Lot 7 in 400 μL) were heated from 20° C. to an initial temperature of 80° C. at a rate of 4.8° C./min and after 30 minutes, cooled at a slow (0.28° C./min), or fast (10° C./min) rate to a final temperature of 5° C. and kept at that temperature for 18 hours. The crystallization experiments were carried out in glass vial (4 mL) well plates, and solid material was isolated by filtration. The solid was dried at 57° C. for 10 hours.

[5] = Relative stability of slurries in water (XRPD of residual solid); conditions: slurried overnight in 2 ml water, all conditions investigated
Description: Two ml of water was added to a few milligrams of Compound I forms. The samples were slurried overnight. A small sample of solid was removed and analyzed by XRPD. […] The hydrate form appears to be more thermodynamically stable than Form A0 between 5 and 45° C.

[6] = Mechanical stress: grinding by mortar and pestle, milling by Wig-L-Bug; conditions: three five-minute grinding intervals
Description: Approximately 100 mg of Compound I was ground at different times ranging from 5 to 27 min in an agate mortar. Samples were removed for XRPD and thermal analysis. The grinding process was stopped every 5 minutes to scrape and remix powder cakes at the curvature end of the jars to ensure homogenous grinding.
A Wig-l-Bug® (Piketech, USA) was used to grind Compound I Form A0, HA0 and HB0 (mixture of Forms HC0 and HD0). Each sample (50 mg) was ground for periods of 5 and 10 minutes or until no change was observed. Each milling was carried out in a 2.82 cm^3 container using 0.9 g stainless steel ball ([…]). The vial is swung through a 6.5° arc at 3200 rpm, causing the ball to strike the end of the vial at over 100 Hz.

[7] = Regular DVS (0 to 90% RH), listed as HC0

DVS % increase in mass at 90% RH [3]: 0.44% | At 75% RH uptake ([3]; Irregular DVS (90 to 0% RH)): 0.3% | Total uptake at 90% RH ([3]; Irregular DVS (90 to 0% RH)): 0.4% | changes by XRPD re-analysis after DVS ([3]; Irregular DVS (90 to 0% RH)): No significant changes | Total uptake at 90% RH ([3]; Regular DVS (0 to 90% RH)): 0.4% | changes by XRPD re-analysis after DVS ([3]; Regular DVS (0 to 90% RH)): No significant changes | At 75% RH uptake [3, 7]: 0.3% | Total uptake at 90% RH [3, 7]: 0.4% | Chemical Stability (HPLC (post 4 weeks at 40° C./75% RH (Area %))) ([1]; 40° C./75% RH): 99.0 Area % | HPLC % Compound I ([1]; 40° C./75% RH, 0 days): 92.6% Compound I, | XRPD (form found) ([1]; 40° C./75% RH, 0 days): HC0 | HPLC % Compound I ([1]; 40° C./75% RH, 28 days): 93.3% Compound I, | HPLC % others ([1]; 40° C./75% RH, 28 days): 0.2% others | XRPD (form found) ([1]; 40° C./75% RH, 28 days): HC0
SMILES: COc1cccc2[nH]c3c4c(c5c(c3c12)C(=O)N(CN1CCN(C)CC1)C5=O)CCC4 [Form HC0, 4,5,6,7-tetrahydro-11-methoxy-2-[(4-methyl-1-piperazinyl)methyl]-1H-cyclopenta[a]pyrrolo[3,4-c]carbazole-1,3(2H)-dione]

HPLC % Compound I ([1]; 40° C./75% RH, 9 days): 99.4% Compound I, | XRPD (form found) ([1]; 40° C./75% RH, 9 days): transformed into monohydrate Form HC0 | XRPD (form found) ([1]; 40° C./75% RH, 9 days, listed as S40): HC0 | HPLC % Compound I ([1]; 40° C./75% RH, 17 days): 99.4% Compound I, | XRPD (form found) ([1]; 40° C./75% RH, 17 days): HC0 | HPLC % Compound I ([1]; 40° C./75% RH, 31 days): 99.4% Compound I, | XRPD (form found) ([1]; 40° C./75% RH, 31 days): HC0 | HPLC % Compound I ([1]; 40° C./75% RH, 62 days): 99.2% Compound I, | XRPD (form found) ([1]; 40° C./75% RH, 62 days): remained in this state | XRPD (form found) ([1]; 40° C./75% RH, 62 days, listed as S40): HC0
SMILES: COc1cccc2[nH]c3c4c(c5c(c3c12)C(=O)N(CN1CCN(C)CC1)C5=O)CCC4 [Form S40]

The remaining lines, values behind:

SMILES: COc1cccc2[nH]c3c4c(c5c(c3c12)C(=O)N(CN1CCN(C)CC1)C5=O)CCC4 [Compound I, 4,5,6,7-tetrahydro-11-methoxy-2-[(4-methyl-1-piperazinyl)methyl]-1H-cyclopenta[a]pyrrolo[3,4-c]carbazole-1,3(2H)-dione]
chemical degradation ([1]; 40° C. and 75% RH): not observed | chemical degradation ([1]; exposed to 110° C.): observed

SMILES: COc1cccc2[nH]c3c4c(c5c(c3c12)C(=O)N(CN1CCN(C)CC1)C5=O)CCC4 [Form B0, 4,5,6,7-tetrahydro-11-methoxy-2-[(4-methyl-1-piperazinyl)methyl]-1H-cyclopenta[a]pyrrolo[3,4-c]carbazole-1,3(2H)-dione]
solid-solid transformation (VT-XRPD) [2]: no solid-solid transformation takes place

SMILES: COc1cccc2[nH]c3c4c(c5c(c3c12)C(=O)N(CN1CCN(C)CC1)C5=O)CCC4 [Form HA0, 4,5,6,7-tetrahydro-11-methoxy-2-[(4-methyl-1-piperazinyl)methyl]-1H-cyclopenta[a]pyrrolo[3,4-c]carbazole-1,3(2H)-dione]
XRPD post DVS analysis [3]: No significant changes | DVS % increase in mass at 90% RH [3]: 1.5% | weight decrease in DVS isotherm ([3]; between 20-30% RH): 1.25% | second change in mass ([3]; second desorption phase): ~0.4% | form produced on crystallization from aqueous media ([4]; aqueous media): a mixture of Forms HC0+HD0 is produced | Forms Found ([4]; solvent not given, 0.175 volumes of water): HC0, HD0 | Chemical Stability (HPLC (post 4 weeks at 40° C./75% RH (Area %))) ([1]; 40° C./75% RH): 99.0 Area % | HPLC % Compound I ([1]; 40° C./75% RH, 0 days): 99.6% Compound I, | XRPD (form found) ([1]; 40° C./75% RH, 0 days): HA0 | HPLC % Compound I ([1]; 40° C./75% RH, 7 days): 99.5% Compound I, | XRPD (form found) ([1]; 40° C./75% RH, 7 days): HA0 | HPLC % Compound I ([1]; 40° C./75% RH, 26 days): 99.0% Compound I, | XRPD (form found) ([1]; 40° C./75% RH, 26 days): HA0 | form after slurrying in water [5]: converted to the hydrate forms (mixture of Forms HC0 and HD0)

SMILES: COc1cccc2[nH]c3c4c(c5c(c3c12)C(=O)N(CN1CCN(C)CC1)C5=O)CCC4 [Form HB0]
factor of reduction in intensity of XRPD peak at 7.6° (2θ) [6]: approximately 30
